# Test results as given in patent publication US9107879B1, “Methods of increasing the cytotoxicity of chemotherapeutic agents with multisubstrate inhibitors of histone, protein-lys, polyamine acetylation, and polyamine metabolism” (Vanderbilt University, priority 2010, dated 2015).
# How the values were obtained:
# H358 lung cancer cells = assay: [3H]-thymidine incorporation DNA synthesis assay; type: cell-based; settings: data not shown
# Experimental: (A) Structures of 1a, and the acetylated side chain of a lysine residue within the polypeptide chain of a protein targeted by the acetylating enzyme (R1 and R2 are the main chain elements on both sides of the lysyl residue). (B) [^3H]-thymidine incorporation into DNA of H358 cells pulsed for 6 hrs at three different time points after the addition of increasing concentrations of 1a, i.e., at 6-12 hrs (12 hr curve), at 18-24 hours (24 hr curve), or at 42-48 hrs (48 hr curve). Incorporation is represented as a percentage relative to control (untreated) cells. (C) Cell cycle analysis of propidium iodide-stained cells harvested at various times after addition of 50 μM 1a. % of cells in G1, S, and G2 represents the average of two independent profiles. (D) Western analysis of histone H3 lysine 9 acetylation, histone H3 lysine 56 acetylation, histone H3 lysine 9 methylation, and total histone H3, before “c” or at the indicated times after addition of 50 μM 1a. Each lane represents 60 μg cellular protein.
# Control cells were left untreated. […] Control cells were left untreated.
# Cells were either labeled immediately before treatment (starting DNA synthesis rate), or subjected to the indicated treatments and then pulsed on successive days until day 4. DNA synthesis is represented as the percent of starting DNA synthesis rate. Viability was determined for each treatment condition 24 hours post-start of treatment by the trypan blue exclusion assay, with percentages of viable cells indicated to the right of the graph.
# H358 cells (2,000/well) in 96-well plates were treated with 1, 10 or 50 μM of spd-1a, spd-2a, spd-3a, spm3, or spm2 for 12 hours. Triplicate wells of cells were pulsed 6 hours with 0.5 μCi [^3H]-thymidine (NEN, Boston Mass.) post-start of drug treatment, and harvested onto filter paper using a Brandel Harvester and subjected to scintillation counting. Untreated cells were pulsed 0-6 hrs to establish the initial rate of incorporation.
# Cells were plated in 96-well plates (2000 cells per well to insure conditions for exponential growth for untreated cells over the time course of the experiment) and exposed to the following treatments: 1a (50 μM); camptothecin (Sigma, St Louis, Mo. 5 nM, 18 hours); cisplatin (Platinol, obtained through local pharmacies, 2 μM, 1 hour 15 minutes), 5-fluorouracil (5FU, Adrucil™, obtained through local pharmacies, 2 μM, 1 hour 15 minutes), Taxotere (provided by the late Dr. Pierre Potier, 5 nM, 18 hours). UVC treatment (40 J/m^2) using a Stratalinker™, Stratagene, La Jolla, Calif.) was carried using medium lacking phenol red. At 0-6 hr, 18-24 hr (day 1), 42-48 hr […], 66-72 hr (day 3), and 90-96 hr (day 4) post-start of treatment, triplicate wells were incubated with 0.5 μCi [^3H]-thymidine (NEN, Boston Mass.), harvested onto filter paper, and subjected to scintillation counting. Trypan blue exclusion assays for cell membrane integrity were carried out as known in the art.
# The present inventors used [^3H]-thymidine incorporation assays to examine DNA synthesis in H358 lung cancer cells in the presence of varying concentrations of 1a. Cells were pulsed for 6 hours with [^3H]-thymidine at three different time points after the addition of 1a (i.e., at 6-12 hours, at 18-24 hours, and at 42-48 hours). The incorporation of [^3H]-thymidine into DNA decreased with increasing concentrations of 1a at all three time points, with the maximal effect occurring with the 6-12 hour pulse (FIG. 2B).
# We then used [^3H]-thymidine incorporation assays to examine DNA synthesis in H358 lung cancer cells in the presence of 1a alone, or together with an 18 hour exposure to the DNA damaging drug, camptothecin (CPT), a plant alkaloid from which an important class of topoisomerase I-targeted chemotherapeutic agents (Hycamtin [topotecan] and Camptosar [irinotecan]) has been derived (Garcia-Carbonero, et al, 2002, Clin Cancer Res 8: 641-61). […]
# [1] = test system: endogenous HATs associated with solubilized chromatin; settings: literature (Bandyopadhyay et al 2009; Parello et al. 1990); cited from earlier work
# MCF7 breast cancer cells = settings: single agent; DFMO 100 μM, 5FU 2 μM 18 hrs, doxorubicin 100 nM 18 hr; spd-2a with no siRNA or control siRNA
# Experimental: (A) [^3H]-thymidine incorporation into DNA of H358 cells (left panel) or MCF-7 cells (right panel) during a 6 hour pulse ending at the indicated time points after initiation of treatment. Treatments were 50 μM 1a alone, 5 nM camptothecin alone (CPT, 18 hours), 50 μM 1a+5 nm CPT (18 hours). Control cells were left untreated. (B) 2-day 96-well viability assays of H358 cells (left panel) or MCF-7 cells (right panel) grown in presence of increasing concentrations of 1a (continuous), with or without an 18-hour treatment with 5 nM camptothecin (CPT). Cell viability, represented as a percent of untreated cell viability (i.e., no 1a, no CPT), was determined 2 days post-start of treatment by the MTS bioconversion assay (MTS=(3-(4,5′-dimethylthiazol-2-yl)-5-(3-carboxymethoxylphenyl-2-(4-sulfophenyl)-2H-tetrazolium salt). Each data point represents the average of triplicate wells. Assays were carried out under conditions such that untreated cells remained in exponential growth. (C) [^3H]-thymidine incorporation into DNA of H358 cells carried out as in part “A”. Treatment consisted of 1a alone (50 μM), or cisplatin (2 μM, 1 hour, 15 minutes) alone or together with 1a (Panel 1); or UVC (40 J/m^2), alone or together with 1a (Panel 2); or 5-fluorouracil (5FU, 2 μM, 18 hours) alone or together with 1a (Panel 3), or Taxotere™ (5 nM, 18 hours), alone or together with 1a (Panel 4). Control cells were left untreated. Symbols are as follows: (-◯-) untreated control; (-●-) 50 μM 1a, (-∇-) drug or UVC alone; (-▾-) combination 1a+drug or UVC.
# Viability was measured 3 days after the start of treatment and is expressed as a percentage of control (untreated) cell viability.
# Each point is average of triplicates.
# Date of exp: 7-17-2010; located p.21 in Hat notebook: KB-2 (2010-2011).
# Cells were plated in 96-well plates (3000 cells per well) and incubated 18 hours with or without 5 nM camptothecin (Sigma, St Louis, Mo.). Triplicate wells were then treated with varying doses of 1a (from 0-50 μM). Control cells received neither 1a nor camptothecin. 2-day viability was determined by the MTS assay as previously (Saadatmandi et al., 2002, Cancer Gene Therapy, 9: 830-9) and expressed as a percentage of control cell viability.
# The present inventors carried out 96-well viability assays as we have previously described (Saadatmandi et al, Cancer Gene Therapy (2002) 9:830-9), in which MCF7 breast cancer cells were plated at 3000 cells per well. After overnight attachment, triplicate wells were treated with increasing doses of inhibitor 1a. Control wells were left untreated. After 3 days, cell viability was measured by the MTS assay, which measures the bioconversion of an uncolored substrate to a colored formazan derivative, and is proportional to cell number. […]
# [2] = test system: MDA MB-435 breast cancer cells; assay: 72 hr viability assay; type: cell-based; settings: DFMO 100 μM, 5FU 2 μM 18 hrs, doxorubicin 100 nM 18 hr
# γ-H2A.X in H358 cells = assay: double strand break / gamma-H2A.X Western and co-immunoprecipitation; type: cell-based; settings: 18 hours post-start; 1a 50 μM, 5FU 2 μM, cisplatin 2 μM, camptothecin 5 nM
# Experimental: Also shown are controls for no treatment (“c” minus 1a) or treatment with 1a only (“c” plus 1a). Each lane represents 60 μg protein. […] Each lane represents 60 μg protein.
# To measure DSB repair, cells were incubated for 1 hour with 10 μM camptothecin to induce DSBs, followed by incubation in the presence or absence of 50 μM 1a. At fixed times, histones were prepared by extraction in 0.2M H2SO4 as described previously and 50 μg extract was analyzed by 12% SDS-PAGE followed Western analysis as described previously, using rabbit polyclonal anti-γ-H2A.X [phosphor ser 139] (Novus Biologicals, Littleton, Colo.) or anti-H3 (Upstate Biotechnology, Inc, Lake Placid, N.Y.). Band intensities were quantitated digitally. To study acetylation of γ-H2A.X, we carried out co-immunoprecipitation analysis using 50 μg extract protein in immunoprecipitation buffer (10 mM sodium phosphate pH 7, 0.15 M NaCl, 0.1% SDS, 1% NP40, 1% sodium deoxycholate, aprotinin, 1 mM PMSF, complete protease inhibitors (Roche) using immobilized anti-acetyl-lysine (Millipore, Temecula, Calif.) in the immunoprecipitation step. The immunoprecipitated material was then analyzed as for Western analysis using anti γ-H2A.X.
# Double strand breaks (DSBs) can be formed by a variety of DNA damaging agents, including camptothecin, cisplatin, 5FU, and UVC radiation (Avemann K, et al., 1988, Mol Cell Biol, 8: 3026-34; Bogdanov K V, et al. 1997, Br J Haematol, 98:869-72; Pavon M A, et al., Int J Cancer, 2008, 123:1068-79) implying that DSB repair may play a role in reducing their cellular toxicity. To examine how 1a treatment affects DSB repair in H358 cells we made use of the fact that the histone variant, H2A.X becomes phosphorylated at sites of double strand breaks (denoted γ-H2A.X), and can be detected by immunoblot analysis of acid extracted cells (Rogaku E P, et al., 1999, J Cell Biol, 146:905-16). […] Total H3 levels and H2A.X levels (control) are unaffected by these treatments (FIG. 4B). […]
# DLD-1 colon cancer = assay: subcutaneous DLD-1 tumor model in nude mice; type: in vivo, nude mouse; settings: DFMO alone, intratumoral, 2 mg/kg
# Experimental: Tumors were initiated By subcutaneous implantation of […] DLD-1 colon cancer cells. […] Tumors were measured and volumes calculated as in FIG. 14.
# Tumors were initiated by injecting 10^6 DLD-1 cells (from ATCC) per mouse (female nude mouse, 4-5 weeks, Harlan Labs) subcutaneously in the flank. (A) When the average tumor size reached 26 mm^3, animals were randomized into 2 groups (3 per group). One group was left untreated and served as the control (-●-). […] Tumors were measured bidirectionally at 2-3 day intervals and tumor volumes were calculated (v=½L×w^2). A paired t-test was used to evaluate the significance of the differences between the two groups of animals. […] (B) Tumors were initiated as in part (A). When tumors reached an average size of about 30 mm^3, animals were randomized into three groups of 2 animals each. The control group (-●-) received no treatment. The DFMO group (-▪-) received intratumoral injections of DFMO (2 mg/kg) on days 1, 7, 9 (5 PM), and 2, 8, 10 (9 AM, 5 PM). […] Tumors were measured and volumes calculated as in part (A). A paired t-test was used to evaluate the significance of the difference between the curves.
Compound,"inhibitory activity against DNA synthesis in vivo, isomers compared (H358 lung cancer cells)",inhibitory activity against endogenous HAT [1],"3-day / 72 hr cell viability, single agent (MCF7 breast cancer cells)","72 hr cell viability, single agent [2]","γ-H2A.X level, single agent (γ-H2A.X in H358 cells)",tumor volume difference versus control (DLD-1 colon cancer)
"CC(C)(COP(=O)(O)OP(=O)(O)OC[C@H]1O[C@@H](n2cnc3c(N)ncnc32)[C@H](O)[C@@H]1OP(=O)(O)O)[C@@H](O)C(=O)NCCC(=O)NCCSCC(=O)NCCCCNCCCN [1b, spermidine [N8]-CoA]",comparable inhibitory activity,comparable inhibitory activity,–,–,–,–
"O=c1[nH]cc(F)c(=O)[nH]1 [5FU, 5-Fluorouracil]",–,–,minimal effects,minimal effects,weakly detectable,–
"NCCC[C@](N)(C(=O)O)C(F)F [DFMO, α-difluoromethylornithine]",–,–,ineffective,ineffective,–,not significant
"N.N.[Cl][Pt][Cl] [cisplatin, cis-diamminedichloro-platinium]",–,–,–,–,weakly detectable,–
COc1cccc2c1C(=O)c1c(O)c3c(c(O)c1C2=O)C[C@@](O)(C(=O)CO)C[C@@H]3O[C@H]1C[C@H](N)[C@H](O)[C@H](C)O1 [doxorubicin],–,–,minimal effects,minimal effects,–,–
